# Structures can show the parent of a compound that is named as a salt. Where two headings read alike, the source gives them in different places.
# Test system: SOX2
# Experiment: Screen of a library of FDA-approved drugs for SOX2 antibody staining in A375 cells treated with PLX4720 and AZD6244
# Details: for cor. loess / raw / norm: A375 cells, 5 uM test drug with 1 uM PLX4720 and 0.5 uM AZD6244, 24 h; for cor. loess: normalized and geometry-corrected (loess) signal; for raw: raw signal (ratio of FL2 SOX2 antibody and FL3 nuclear staining), screen run in duplicate; for norm: signal after plate normalization
# [1] = Z-test against negative controls (DMSO), single dose 5 uM
Molecule,cor. loess,raw,norm,z [1],z
CC(=O)OCC(=O)[C@@]12OC(C)(C)O[C@@H]1C[C@H]1[C@@H]3C[C@H](F)C4=CC(=O)C=C[C@]4(C)[C@@]3(F)[C@@H](O)C[C@@]12C [FLUOCINONIDE],0.4293,0.9797,0.4123,3.538,
CC(C)(C)CC(C)(C)c1ccc(OCCOCC[N+](C)(C)Cc2ccccc2)cc1 [BENZETHONIUM CHLORIDE],0.9288,0.9635,0.9712,7.654,
O=C1c2ccccc2C(=O)C1c1ccc(Cl)cc1 [CHLORINDIONE],0.3463,0.9825,0.2966,3.839,
CN1C[C@H](CNC(=O)OCc2ccccc2)C[C@@H]2c3cccc4c3c(cn4C)C[C@H]21 [METERGOUNE],0.4209,0.9793,0.4023,4.666,
GRAMICIDIN [GRAMICIDIN (gramicidin A shown)],0.5992,0.9705,0.7289,,4.938
HYDROCORTISONE HEMISUCCINATE,0.4622,,0.507,,3.809
CN1CCN(c2c(F)cc3c(=O)c(C(=O)O)cn4c3c2SCC4)CC1 [RUFLOXACIN HYDROCHLORIDE],0.3991,0.9796,0.4438,4.267,
CCCCc1oc2ccc(NS(C)(=O)=O)cc2c1C(=O)c1ccc(OCCCN(CCCC)CCCC)cc1 [DRONEDARONE HYDROCHLORIDE],3.823,0.8721,4.004,52.01,
CCN(CC)C(=S)SSC(=S)N(CC)CC,0.5909,0.973,0.642,4.87,
ABAMECTIN [ABAMECTIN (avermectin B1a shown)],0.4606,0.9779,0.5009,4.925,
"CCOc1cc2ncc(C#N)c(Nc3ccc(F)c(Cl)c3)c2cc1NC(=O)/C=C/CN(C)C [Pelitinib (EKB-569), Pelitinib]",0.7376,0.9677,0.828,5.755,
C[C@@H]1O[C@@H](O[C@@H]2C=C3CC[C@@H]4[C@H](CC[C@]5(C)[C@@H](c6ccc(=O)oc6)CC[C@]45O)[C@@]3(C)CC2)[C@H](O)[C@H](O)[C@H]1O [PROSCILLARIDIN A],0.5083,0.9787,0.4294,3.007,
Cc1cc2nc3ccc(N(C)C)cc3[s+]c2cc1N [TOLONIUM CHLORIDE],0.7082,0.971,0.6829,7.851,
CC(=O)c1cc2c(o1)C(=O)c1ccccc1C2=O [Napabucasin],0.8204,0.9658,0.8869,6.402,
"Nc1ccccc1NC(=O)c1ccc(CNC(=O)OCc2cccnc2)cc1 [Entinostat (MS-275), Entinostat]",0.6933,0.9672,0.8427,5.41,
CCN(CC)Cc1cc(Nc2ccnc3cc(Cl)ccc23)ccc1O [AMODIAQUINE DIHYDROCHLORIDE],0.9308,0.9611,1.053,7.671,
[H]/N=C(/NCCCCC)N/N=C/c1c[nH]c2ccc(OC)cc12 [TEGASEROD MALEATE],0.2864,0.9849,0.2748,3.897,
C[C@@H]1C[C@@H]([C@H](O)CC2CC(=O)NC(=O)C2)C(=O)[C@@H](C)C1 [CYCLOHEXIMIDE],0.6971,0.9738,0.6756,5.982,
CC(=O)OCC(=O)[C@@]1(O)[C@H](OC(C)=O)C[C@H]2[C@@H]3CCC4=CC(=O)C=C[C@]4(C)[C@@]3(F)[C@@H](O)C[C@@]21C [TRIAMCINOLONE DIACETATE],0.3964,0.9794,0.4506,4.238,
COc1ccc2cc1Oc1ccc(cc1)C[C@H]1c3cc(c(OC)cc3CCN1C)Oc1c(OC)c(OC)cc3c1[C@H](C2)N(C)CC3 [Tetrandrine],1.018,0.9619,1.018,7.2,

Molecule,cor. loess,raw,norm,z [1],z
C[C@@H]1C[C@H]2[C@@H]3CCC4=CC(=O)C=C[C@]4(C)[C@@]3(F)[C@@H](O)C[C@]2(C)[C@@]1(O)C(=O)COP(=O)(O)O [DEXAMETHASONE SODIUM PHOSPHATE],0.5299,0.9748,0.5817,4.367,
Cc1cnc(Nc2ccc(OCCN3CCCC3)cc2)nc1Nc1cccc(S(=O)(=O)NC(C)(C)C)c1 [TG101348 (SAR302503)],1.471,0.9608,1.142,5.665,
CO[C@H]1C[C@H](O[C@@H]2/C(C)=C/C[C@@H]3C[C@@H](C[C@]4(CC[C@H](C)[C@@H](C5CCCCC5)O4)O3)OC(=O)[C@@H]3C=C(C)/C(=N/O)[C@H]4OC/C(=C\C=C\[C@@H]2C)[C@]43O)O[C@@H](C)[C@@H]1O [SELAMECTIN],0.533,0.9768,0.5401,7.251,
Cc1cn(-c2cc(NC(=O)c3ccc(C)c(Nc4nccc(-c5cnccn5)n4)c3)cc(C(F)(F)F)c2)cn1 [Radotinib],0.7186,0.9713,0.7194,7.683,
CCN(CC)CCNC(=O)c1c(C)[nH]c(/C=C2\C(=O)Nc3ccc(F)cc32)c1C [Sunitinib],0.5385,0.9775,0.514,5.758,
CC(=O)N[C@@H](CC(C)C)C(=O)O [ACETYL-L-LEUCINE],0.5782,0.9737,0.5922,6.41,
COC(=O)C[C@](O)(CCCC(C)(C)O)C(=O)O[C@@H]1C(OC)=C[C@]23CCCN2CCc2cc4c(cc2[C@H]13)OCO4 [Homoharringtonine],1.181,0.9576,1.161,8.354,
CC(C)COc1ccc(CNC(=O)N(Cc2ccc(F)cc2)C2CCN(C)CC2)cc1 [Pimavanserin],0.7376,0.9689,0.7906,5.755,
CO[C@H]1/C=C/O[C@@]2(C)Oc3c(C)c(O)c4c(O)c(c(/C=N/N5CCN(C)CC5)c(O)c4c3C2=O)NC(=O)/C(C)=C\C=C\[C@H](C)[C@H](O)[C@@H](C)[C@@H](O)[C@@H](C)[C@H](OC(C)=O)[C@@H]1C [RIFAMPIN],0.4025,0.9792,0.4925,3.454,
COC(=O)[C@]12CCC(C)(C)C[C@H]1[C@H]1C(=O)C=C3[C@@]4(C)C=C(C#N)C(=O)C(C)(C)[C@@H]4CC[C@@]3(C)[C@]1(C)CC2 [Bardoxolone Methyl],1.25,0.9513,1.346,9.753,
Cc1c(OCC(F)(F)F)ccnc1C[S+]([O-])c1nc2ccccc2[nH]1 (centres unmarked) [LANSOPRAZOLE],0.2732,0.9819,0.3712,3.717,
Cc1cc(C(C)(C)CC(C)(C)C)ccc1OCCOCC[N+](C)(C)Cc1ccccc1.[Cl-] [METHYLBENZETHONIUM CHLORIDE],0.2976,0.9826,0.3484,4.049,
CCCOc1ccc2nc(NC(=O)OC)[nH]c2c1 [OXIBENDAZOLE],0.4781,0.9763,0.5578,6.505,
C[C@@H]1C[C@H]2[C@@H]3C[C@H](F)C4=CC(=O)C=C[C@]4(C)[C@@]3(F)[C@@H](O)C[C@]2(C)[C@@]1(O)C(=O)COC(=O)C(C)(C)C [FLUMETHAZONE PIVALATE],0.4809,0.9766,0.5179,3.963,
O=[N+]([O-])C(Br)(CO)CO [BRONOPOL],0.4507,0.9779,0.4505,4.996,
CC(C)Oc1ccc2c(=O)c(-c3ccccc3)coc2c1 [IPRIFLAVONE],0.3885,0.9807,0.3563,4.307,
CCCCCCCCCCCCCCCC[N+](C)(C)C.[Br-] [CETRIMONIUM BROMIDE],5.014,0.8841,4.765,19.51,
C[C@H]1O[C@@H](O[C@H]2[C@@H](O)C[C@H](O[C@H]3[C@@H](O)C[C@H](O[C@H]4CC[C@@]5(C)[C@H](CC[C@@H]6[C@@H]5CC[C@]5(C)[C@@H](C7=CC(=O)OC7)CC[C@]65O)C4)O[C@@H]3C)O[C@@H]2C)C[C@H](O)[C@@H]1O [DIGITOXIN],1.488,0.9468,1.549,12.26,
CC(=O)O[C@H]1C(=O)[C@@]2(C)[C@H]([C@H](OC(=O)c3ccccc3)[C@]3(O)C[C@H](OC(=O)[C@H](O)[C@@H](NC(=O)c4ccccc4)c4ccccc4)C(C)=C1C3(C)C)[C@]1(OC(C)=O)CO[C@@H]1C[C@@H]2O [PACLITAXEL],0.341,0.9826,0.3501,4.64,

# Reference: patent US20200325543A1, “DIAGNOSTIC METHOD” (TOLREMO THERAPEUTICS AG, priority 2017, published 2020)
